We go through twelve molecules from patent US20240002354A1, “ANTIDIABETIC COMPOUNDS AND COMPOSITIONS” (REZUBIO PHARMACEUTICALS CO., LTD, priority 2020, published 2024).

A value given as a limit tells only on which side of the number the result lay.

For the test, the target named is T1, GPR40 (Homo sapiens, UniProt O14842).
T1 construct: expressed in transfected cells
T1 sequence (O14842 whole entry): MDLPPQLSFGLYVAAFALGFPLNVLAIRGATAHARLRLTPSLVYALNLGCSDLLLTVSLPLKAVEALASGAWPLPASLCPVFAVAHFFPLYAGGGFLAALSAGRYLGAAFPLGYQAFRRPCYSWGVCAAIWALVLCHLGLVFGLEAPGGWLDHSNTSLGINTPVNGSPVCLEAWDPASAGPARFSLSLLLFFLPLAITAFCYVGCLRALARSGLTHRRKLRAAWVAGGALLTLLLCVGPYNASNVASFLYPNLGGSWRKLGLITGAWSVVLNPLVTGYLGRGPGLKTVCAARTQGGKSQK
In words: IP1 accumulation assay (Cisbio IP-One HTRF) in HEK293 cells stably expressing GPR40. In kind it is cell-based. Particulars: HEK293 cells stably expressing GPR40, 37° C. for 2 hours, % Effect relative to AMG-1638 positive control. On the procedure:
IP1 accumulation assay was used to evaluate the potency of compounds. HEK293 cells stably expressing GPR40 were cultured in 5% CO2 incubator (ThermoFisher) in maintenance media (Dulbecco's modified Eagle's medium with 4.5 g/L of glucose, 10% fetal bovine serum, 100 μg/mL Hygromycin, and Penicillin (100 U/mL)/Streptomycin (100 μg/mL)) till 100% confluency. Cells were harvested freshly, spun down at 300×g for 5 min, and resuspended in pre-warmed 1× stimulant buffer from Cisbio IP-One HTRF Detection kit (Cisbio). Cell density was adjusted to 2.0×10^6 cells/mL. DMSO was used as blank control and AMG-1638 (CAS #: 1142214-62-7) as positive control. Compounds were prepared at 10 mM in DMSO and 5 nL of 3× serially diluted compounds (10 concentrations) were added to each well of the 384-LDV assay plate (Corning) by using ECHO 550 (Labcyte). Five μL of cells in suspension were transferred into each well by using Multidrop Combi Reagent Dispenser (ThermoFisher). Assay plate was then sealed and incubated at 37° C. for 2 hours. IP-d2 reagent and anti-IP1 reagent were prepared following the manual (Cisbio). Five μL of IP1-d2 and then 5 μL of anti-IP1 antibody was added to each well sequentially. Assay plate was incubated at room temperature for 60 min and then read at 665 nm/615 nm on an Envision plate reader (PerkinElmer). The ratio of values obtained at 665 nm and 615 nm was used for calculation of IP1 accumulation: % Effect=(Ratiosample−Ratioblank)/(RatioAMG-1638−Ratioblank)×100. Dose curve was fitted and EC50 of each compound was calculated by using XLFit.
`C[C@H](C(=O)O)[C@H](c1ccc2c(c1)O[C@@H](C1CCN(Cc3cc(CN=[N+]=[N-])ccc3OC(F)(F)F)CC1)CC2)C1CC1` [Compound 201] came in with an EC50 of 0.001 to 0.05 µM.
Molecule `C#CCOc1cc(COc2cccc([C@H](CC)CC(=O)O)c2)ccc1-c1cc(OC)ccc1F` [Compound No. 211] had an EC50 of 1 to 5 µM.
For `CC[C@H](CC(=O)O)c1cccc(OCc2ccc(-c3cc(OC)ccc3F)c(OCc3cn(CCCCCCCCCCCCCCCCCC(=O)O)nn3)c2)c1` [Compound No. 212], the concentration for a half-maximal effect (EC50) was at least 5 µM.
The result for `CCCCCCn1cc(COc2cc(COc3cccc([C@H](CC)CC(=O)O)c3)ccc2-c2cc(OC)ccc2F)nn1` [Compound No. 213] reads 1 to 5 µM.
The result for `COc1ccc(F)c(-c2ccc(COc3cccc([C@@H](CC(=O)O)C4CC4)c3)cc2C(C)(C)N=[N+]=[N-])c1` [Compound No. 216, (S)-3-(3-((2-(2-azidopropan-2-yl)-2′-fluoro-5′-methoxy-[1,1′-biphenyl]-4-yl)methoxy)phenyl)-3-cyclopropylpropanoic acid] reads 0.001 to 0.05 µM.
The molecule `C#CC(C)(C)c1cc(COc2cccc([C@@H](CC(=O)O)C3CC3)c2)ccc1-c1cc(OC)ccc1F` [Compound No. 217, (S)-3-cyclopropyl-3-(3-((2′-fluoro-5′-methoxy-2-(2-methylbut-3-yn-2-yl)-[1,1′-biphenyl]-4-yl)methoxy)phenyl)propanoic acid] displayed an EC50 of 0.001 to 0.05 µM.
The same measure for `CCCCCCc1cn(C(C)(C)c2cc(COc3cccc([C@@H](CC(=O)O)C4CC4)c3)ccc2-c2cc(OC)ccc2F)nn1` [Compound No. 218, (S)-3-cyclopropyl-3-(3-((2′-fluoro-2-(2-(4-hexyl-1H-1,2,3-triazol-1-yl)propan-2-yl)-5′-methoxy-[1,1′-biphenyl]-4-yl)methoxy)phenyl)propanoic acid]: 0.25 to 1 µM.
The same measure for `CCCCCCn1cc(C(C)(C)c2cc(COc3cccc([C@@H](CC(=O)O)C4CC4)c3)ccc2-c2cc(OC)ccc2F)nn1` [Compound No. 219, (S)-3-cyclopropyl-3-(3-{2′-fluoro-2-[1-(1-hexyl-1H-[1,2,3]triazol-4-yl)-1-methyl-ethyl]-5′-methoxy-biphenyl-4-ylmethoxy}-phenyl)-propionic acid]: 0.25 to 1 µM; for `COc1ccc(F)c(-c2ccc(COc3cccc([C@@H](CC(=O)O)C4CC4)c3)cc2C(C)(C)n2cc(CCCCCCCCCCCCCCCCCC(=O)O)nn2)c1` [Compound No. 220, (S)-18-(1-(2-(4-((3-(2-carboxy-1-cyclopropylethyl)phenoxy)methyl)-2′-fluoro-5′-methoxy-[1,1′-biphenyl]-2-yl)propan-2-yl)-1H-1,2,3-triazol-4-yl)octadecanoic acid]: 1 to 5 µM.
For `COc1ccc(F)c(-c2ccc(COc3cccc([C@@H](CC(=O)O)C4CC4)c3)cc2C(C)(C)c2cn(CCCCCCCCCCCCCCCCCC(=O)O)nn2)c1` [Compound No. 221, (S)-18-[4-(1-{4-[3-(2-Carboxy-1-cyclopropyl-ethyl)-phenoxymethyl]-2′-fluoro-5′-methoxy-biphenyl-2-yl}-1-methyl-ethyl)-[1,2,3]triazol-1-yl]-octadecanoic acid], the EC50 lay within 0.25 to 1 µM.
The same measure for `COc1ccc(F)c(-c2ccc(COc3cccc([C@@H](CC(=O)O)C4CC4)c3)cc2C(C)(C)CN=[N+]=[N-])c1` [Compound No. 224]: 0.001 to 0.05 µM; for `CCCCCCc1cn(CC(C)(C)c2cc(COc3cccc([C@@H](CC(=O)O)C4CC4)c3)ccc2-c2cc(OC)ccc2F)nn1` [Compound No. 225, (S)-3-cyclopropyl-3-(3-{2′-fluoro-2-[2-(4-hexyl-[1,2,3]triazol-1-yl)-1,1-dimethyl-ethyl]-5′-methoxy-biphenyl-4-ylmethoxy}-phenyl)-propionic acid]: 0.05 to 0.25 µM.
